Assay results published in patent US20240408100A1, “TREATMENT METHODS FOR SUBJECTS HAVING CANCER WITH A DYSREGULATED MAPK AND/OR PI3K PATHWAY” (TAIHO PHARMACEUTICAL CO., LTD., priority 2021, published 2024).

Columns and labels:
[1] = tested on: SW1573 human lung tumor xenografts; conditions: 30 mg/kg/day
[2] = tested on: LU65 human lung tumor xenografts; test: antitumor effect in mice with LU65 xenograft tumors; conditions: 30 mg/kg/day
Protocol: The tumor volumes and body weights of animals were recorded.

LU65 = test: 3-day growth inhibition assay; assay type: cell-based; conditions: Homo sapiens, Lu-65; LU65 (NSCLC), KRAS p.G12C; read-out: Growth inhibition (IC50: nmol/L)
Protocol: (§1) The IC50 values for each compound in cell lines used in a series of animal experiments evaluating the antitumor effects of Compound (1) on KRAS mutant tumor xenografts were determined by a 3-day growth inhibition assay (Table 7).

LS180 = test: 3-day growth inhibition assay; assay type: cell-based; conditions: Homo sapiens; LS180 (Colon), KRAS p.G12D, PIK3CA p.H1047R, PTEN p.I67K; read-out: Growth inhibition (IC50: nmol/L)
Protocol: as §1

SW1573 = test: 3-day growth inhibition assay; assay type: cell-based; conditions: Homo sapiens; SW1573 (NSCLC), KRAS p.G12C, PIK3CA p.K111E; read-out: Growth inhibition (IC50: nmol/L)
Protocol: as §1

NF1 mutant cell lines = test: growth inhibition assay, summary over the panel; assay type: cell-based; conditions: range over the cell lines of Table 2; read-out: IC50 values, range over NF1 mutant cell lines
From the text: (§2) In order to investigate the growth inhibitory effect of Compound (1) in NF1 mutant cancer cell lines, the IC50 values of growth inhibition assay were obtained and compared then in Table 2.
(§3) In this experiment, to compare the growth inhibitory effect of Compound (1) with those of MAPK and PI3K signaling inhibitors, the IC50 values of trametinib (as a MEK inhibitor), and Alpelisib (as a PI3K inhibitor) were obtained and compared.

MeWo = test: growth inhibition assay, NF1 mutant cell line; assay type: cell-based; conditions: Homo sapiens, melanoma, NF1 p.Q1336*
From the text: as §2, §3

MDA-MB-231 = test: growth inhibition assay, NF1 mutant cell line; assay type: cell-based; conditions: Homo sapiens; MDA-MB-231, TN breast, NF1 p.T467Hfs*3
From the text: as §2, §3

BT483 = test: growth inhibition assay, NF1 mutant cell line; assay type: cell-based; conditions: Homo sapiens, BT-483; BT483, ER+ breast, NF1 p.R1204W
From the text: as §2, §3

HCT116 = test: growth inhibition assay, NF1 mutant cell line; assay type: cell-based; conditions: Homo sapiens, HCT-116; HCT116, colon, NF1 p.P678Rfs*10, p.P388T
From the text: as §2, §3

RKO = test: growth inhibition assay, NF1 mutant cell line; assay type: cell-based; conditions: Homo sapiens, colon
From the text: as §2, §3

HCC202 = test: growth inhibition assay, NF1 mutant cell line; assay type: cell-based; conditions: HCC202, HER2+ breast, NF1 p.X465_splice
From the text: as §2, §3

MDA-MB-175VII = test: growth inhibition assay, NF1 mutant cell line; assay type: cell-based; conditions: Homo sapiens, ER+ breast, NF1 p.1679Dfs*21
From the text: as §2, §3

H1838 = test: growth inhibition assay, NF1 mutant cell line; assay type: cell-based; conditions: Homo sapiens, NCI-H1838; H1838, lung, NF1 p.N184Qfs*17
From the text: as §2, §3

[3] = tested on: MCF7 cells (control and NF1 knockdown); test: immunoblotting of target inhibition and apoptosis induction; assay type: cell-based, human
Protocol: To investigate the mechanism of action of Compound (1) in inhibiting the growth of NF1 knockdown breast cancer cells, Compound (1), trametinib, Alpelisib, and fulvestrant were exposed to NF1-knockdown MCF7 and T47D cells at indicated final concentration for 24 hours. NF1, pPRAS40 Thr246, pYB1 Ser102, pS6RP Ser235/236, ERα, and cleaved PARP were detected by immunoblotting.

[4] = tested on: LS180 human colorectal tumor xenografts; test: antitumor effect in mice with LS180 xenograft tumors; assay type: in vivo; conditions: 1 mg/kg/day
Protocol: The oncogenic KRAS mutations are diverse, including not only G12C but also G12X and G13X in the mutation hotspot Glycine at […]. To determine whether Compound (1), which targets downstream of MAPK and PI3K signaling, is effective against G12D mutated cancers, an efficacy experiment of Compound (1) was conducted using subcutaneously transplanted LS180 tumor derived from colorectal cancers with KRAS G12D and PIK3CA and PTEN gene alterations.
Evaluation was conducted by comparing the efficacy of 80 mg/kg/day of Compound (1) with that of 1 mg/kg/day MEK inhibitor trametinib used as a reference group.

AsPC-1 = test: 3-day growth inhibition assay; assay type: cell-based; conditions: Homo sapiens, ASPC1; AsPC-1 (Pancreas), KRAS p.G12D; read-out: Growth inhibition (IC50: nmol/L)
Protocol: as §1

[5] = tested on: AsPC-1 human pancreatic tumor xenografts; conditions: 1 mg/kg/day
Protocol: All treatments were administered every day by oral gavage. The tumor volumes and body weights of animals were recorded.

[6] = tested on: ER+/HER2− breast cancer cell lines; test: immunoblotting, combination with fulvestrant, presence and absence of estrogen and NF1; assay type: cell-based
Protocol: The actual standard of care for ER+/HER2− breast cancer uses the adjuvant therapies such as tamoxifen, letrozole, or fulvestrant. Patients with recurrent or refractory tumors are treated with additional use of CDK4/6 inhibitors or Alpelisib for PIK3CA-mutated cancers.

| SMILES | IC50 (LU65) [nmol/L] | IC50 (LS180) [nmol/L] | IC50 (SW1573) [nmol/L] | IC50 (NF1 mutant cell lines) [nM] | IC50 (MeWo) [nM] | IC50 (MDA-MB-231) [nM] | IC50 (BT483) [nM] | IC50 (HCT116) [nM] | IC50 (RKO) [nM] | IC50 (HCC202) [nM] | IC50 (MDA-MB-175VII) [nM] | IC50 (H1838) [nM] | further results |
| --- | --- | --- | --- | --- | --- | --- | --- | --- | --- | --- | --- | --- | --- |
| C=CC(=O)N1CCN(c2nc(=O)n(-c3c(C)ccnc3C(C)C)c3nc(-c4c(O)cccc4F)c(F)cc23)[C@@H](C)C1 [AMG510, sotorasib, reference compound] | 7.17 | > 10000 | > 10000 | – | – | – | – | – | – | – | – | – | T/C ratio (%) ([1]; Day 15): 54%; Number of deaths ([1]; qd Day 1-14, po): 0; Tumor volume (mm^3) Day 15 Mean ± SE ([1]; qd Day 1-14, po): 429.2 ± 60.2 mm^3; Number of deaths [2]: 0; T/C ratio (%) ([2]; Day 13): 46%; Tumor volume (mm^3) Day 13 Mean ± SE ([2]; qd, po): 1067.9 ± 139.4 mm^3 |
| Cc1nc(NC(=O)N2CCC[C@H]2C(N)=O)sc1-c1ccnc(C(C)(C)C(F)(F)F)c1 [Alpelisib] | – | – | – | ≥ 179 | > 10000 | > 10000 | 179 | 6340 | 2700 | 918 | 1090 | 6410 | apoptosis induction (cleaved PARP signal) ([3]; MCF7 NF1 knockdown cells versus control cells): attenuated; apoptosis induction (cleaved PARP signal) ([3]; MCF7 control cells (non-targeting siRNA), single agent): induced apoptosis |
| CC(=O)Nc1cccc(-n2c(=O)n(C3CC3)c(=O)c3c(Nc4ccc(I)cc4F)n(C)c(=O)c(C)c32)c1 [Trametinib] | 0.739 | 9 | > 10000 | ≥ 16 | 176 | > 10000 | > 2000 | 16 | 40 | > 2000 | 40 | > 2000 | Number of deaths [4]: 0; T/C ratio (%) ([4]; Day 15): 76%; Tumor volume (mm^3) Day 15 Mean ± SE ([4]; qd Day 1-14, po): 1129.3 ± 73.5 mm^3; IC50 (AsPC-1): 0.693 nmol/L; Number of deaths [5]: 0; T/C ratio (%) ([5]; Day 22): 51%; Tumor volume (mm^3) Day 22 Mean ± SE ([5]; qd Day 1-21, po): 482.5 ± 25.6 mm^3 |
| C[C@]12CC[C@@H]3c4ccc(O)cc4C[C@@H](CCCCCCCCC[S+]([O-])CCCC(F)(F)C(F)(F)F)[C@H]3[C@@H]1CC[C@@H]2O (some centres unmarked) [fulvestrant] | – | – | – | – | – | – | – | – | – | – | – | – | apoptosis induction ([6]; single agent, presence or absence of estrogen, NF1 wildtype and NF1 knockdown cells): little apoptosis inducing activity; ER reduction ([6]; treatment with fulvestrant alone): ER reduction was observed clearly |
